Experimental data as given in PubChem BioAssay (NCI).
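Test compounds were applied to cells in 96-well plates for 48 hours at 5 doses. Abbreviation: GI50, concentration required for 50% inhibition of growth. The concentration for full growth arrest is given as TGI.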

Experiments:
Test in all cases: DTP human tumour cell line panel, 48 h
[1] = test system: 786-0 renal
[2] = test system: A498 renal
[3] = test system: A549 NSCLC
[4] = test system: ACHN renal
[5] = test system: BT-549 breast
[6] = test system: CCRF-CEM leukemia
[7] = test system: COLO 205 colon
[8] = test system: DU-145 prostate
[9] = test system: EKVX NSCLC
[10] = test system: HCC-2998 colon
[11] = test system: HCT-116 colon
[12] = test system: HCT-15 colon
[13] = test system: HL-60(TB) leukemia
[14] = test system: HOP-62 NSCLC
[15] = test system: HOP-92 NSCLC
[16] = test system: HS 578T breast
[17] = test system: HT29 colon
[18] = test system: IGROV1 ovarian
[19] = test system: K-562 leukemia
[20] = test system: KM12 colon
[21] = test system: LOX IMVI melanoma
[22] = test system: M14 melanoma
[23] = test system: MALME-3M melanoma
[24] = test system: MCF7 breast
[25] = test system: MDA-MB-231 breast
[26] = test system: MDA-MB-435
[27] = test system: MOLT-4 leukemia
[28] = test system: NCI-H226 lung
[29] = test system: NCI-H23 lung
[30] = test system: NCI-H460 lung
[31] = test system: NCI-H522 lung
[32] = test system: NCI/ADR-RES ovarian
[33] = test system: OVCAR-3 ovarian
[34] = test system: OVCAR-4 ovarian
[35] = test system: OVCAR-5 ovarian
[36] = test system: OVCAR-8 ovarian
[37] = test system: PC-3 prostate
[38] = test system: RPMI-8226 leukemia
[39] = test system: RXF 393 renal
[40] = test system: SF-268 CNS
[41] = test system: SF-295 CNS
[42] = test system: SF-539 CNS
[43] = test system: SK-MEL-2 melanoma
[44] = test system: SK-MEL-28 melanoma
[45] = test system: SK-MEL-5 melanoma
[46] = test system: SK-OV-3 ovarian
[47] = test system: SN12C renal
[48] = test system: SNB-19 CNS
[49] = test system: SNB-75 CNS
[50] = test system: SR leukemia
[51] = test system: SW-620 colon
[52] = test system: T-47D breast
[53] = test system: U251 CNS
[54] = test system: UACC-257 melanoma
[55] = test system: UACC-62 melanoma
[56] = test system: UO-31 renal

SMILES: CCN1CCN(c2cc(C)nc(N(CCNc3ccnc4cc(Cl)ccc34)Cc3ccc4c(c3)OCO4)n2)CC1
- GI50 [1]: 1490 nM
- TGI [1]: 2900 nM
- GI50 [2]: 1500 nM
- TGI [2]: 3300 nM
- GI50 [3]: 2130 nM
- TGI [3]: 4930 nM
- GI50 [4]: 1860 nM
- TGI [4]: 4390 nM
- GI50 [5]: 1540 nM
- TGI [5]: 3130 nM
- GI50 [6]: 728 nM
- TGI [6]: 4690 nM
- GI50 [7]: 1510 nM
- TGI [7]: 3260 nM
- GI50 [8]: 2230 nM
- TGI [8]: 7250 nM
- GI50 [9]: 2330 nM
- TGI [9]: 7910 nM
- GI50 [10]: 2090 nM
- TGI [10]: 4220 nM
- GI50 [11]: 1030 nM
- TGI [11]: 2390 nM
- GI50 [12]: 875 nM
- TGI [12]: 2690 nM
- GI50 [13]: 1900 nM
- TGI [13]: 3840 nM
- GI50 [14]: 1940 nM
- TGI [14]: 5210 nM
- GI50 [15]: 1210 nM
- TGI [15]: 3710 nM
- GI50 [16]: 1790 nM
- TGI [16]: 4150 nM
- GI50 [17]: 1160 nM
- TGI [17]: 3710 nM
- GI50 [18]: 1480 nM
- TGI [18]: 3920 nM
- GI50 [19]: 355 nM
- TGI [19]: 1700 nM
- GI50 [20]: 1800 nM
- TGI [20]: 5970 nM
- GI50 [21]: 1500 nM
- TGI [21]: 2890 nM
- GI50 [22]: 1490 nM
- TGI [22]: 2950 nM
- GI50 [23]: 1670 nM
- TGI [23]: 3370 nM
- GI50 [24]: 1190 nM
- TGI [24]: 2830 nM
- GI50 [25]: 1370 nM
- TGI [25]: 3000 nM
- GI50 [26]: 1480 nM
- TGI [26]: 2900 nM
- GI50 [27]: 728 nM
- TGI [27]: 3100 nM
- GI50 [28]: 2430 nM
- TGI [28]: 7050 nM
- GI50 [29]: 1880 nM
- TGI [29]: 5010 nM
- GI50 [30]: 1770 nM
- TGI [30]: 3610 nM
- GI50 [31]: 1580 nM
- TGI [31]: 3180 nM
- GI50 [32]: 1600 nM
- TGI [32]: 3510 nM
- GI50 [33]: 1200 nM
- TGI [33]: 2640 nM
- GI50 [34]: 1930 nM
- TGI [34]: 6180 nM
- GI50 [35]: 2530 nM
- TGI [35]: 6510 nM
- GI50 [36]: 1640 nM
- TGI [36]: 3360 nM
- GI50 [37]: 1980 nM
- TGI [37]: 7000 nM
- GI50 [38]: 1200 nM
- TGI [38]: 3370 nM
- GI50 [39]: 688 nM
- TGI [39]: 2120 nM
- GI50 [40]: 1800 nM
- TGI [40]: 3720 nM
- GI50 [41]: 1450 nM
- TGI [41]: 2980 nM
- GI50 [42]: 1520 nM
- TGI [42]: 3120 nM
- GI50 [43]: 1630 nM
- TGI [43]: 3150 nM
- GI50 [44]: 1720 nM
- TGI [44]: 3500 nM
- GI50 [45]: 1560 nM
- TGI [45]: 2930 nM
- GI50 [46]: 2120 nM
- TGI [46]: 5340 nM
- GI50 [47]: 1830 nM
- TGI [47]: 3710 nM
- GI50 [48]: 2670 nM
- TGI [48]: 8490 nM
- GI50 [49]: 1330 nM
- TGI [49]: 2720 nM
- GI50 [50]: 189 nM
- TGI [50]: 544 nM
- GI50 [51]: 1580 nM
- TGI [51]: 3450 nM
- GI50 [52]: 1990 nM
- TGI [52]: 4960 nM
- GI50 [53]: 1490 nM
- TGI [53]: 3160 nM
- GI50 [54]: 2050 nM
- TGI [54]: 3880 nM
- GI50 [55]: 1830 nM
- TGI [55]: 3630 nM
- GI50 [56]: 1360 nM
- TGI [56]: 3300 nM
